Measurements taken from patent publication US10047105B2, “Gyrase inhibitors” (Merck Sharp & Dohme Corp., priority 2009, dated 2018).
Values after ≈ are worked out from the molar mass of the structure shown.

Assays:
[1] = system: S. aureus ATCC 13709; assay: MIC, antibacterial potency, S. aureus; format: cell-based; settings: S. aureus
[2] = system: S. pneumoniae ATCC 51916; assay: MIC, S. pneumoniae; format: cell-based; settings: S. pneumoniae

| SMILES | MIC, SA [1] [µg/mL] | MIC Spn52 [2] [µg/mL] |
| --- | --- | --- |
| CCc1[nH]c2nc(Sc3cccnc3)nc(Cl)c2c1C=O [700,075] | 64 (≈ 201 µM) |  |
| CCc1[nH]c2nc(Sc3cccnc3)nc(NCC(C)C)c2c1C=O [700,076] | > 64 |  |
| CCc1[nH]c2nc(Sc3cccnc3)nc(NCc3ccc(C)o3)c2c1C=O [700,077] | > 64 |  |
| CCc1[nH]c2nc(Sc3cccnc3)nc(NCC3CCCCC3)c2c1C=O [700,078] | > 64 |  |
| CCc1[nH]c2nc(Sc3cccnc3)nc(NCCOc3ccccc3)c2c1C=O [700,079] | > 64 |  |
| CCc1[nH]c2nc(Sc3cccnc3)nc(NCc3ccccc3)c2c1C=O [700,080] | > 64 |  |
| CCOCCNc1nc(Sc2cccnc2)nc2[nH]c(CC)c(C=O)c12 [700,082] | > 64 |  |
| CCc1[nH]c2nc(Sc3cccnc3)nc(N3CCN(C(C)C)CC3)c2c1C=O [700,084] | > 64 |  |
| CCc1[nH]c2nc(Sc3cccnc3)nc(N3CCN(CC(=O)N(C)C)CC3)c2c1C=O [700,085] | > 64 |  |
| CCc1[nH]c2nc(Sc3cccnc3N)nc(Cl)c2c1C=O [700,088] | > 64 |  |
| CCc1[nH]c2nc(Sc3cccnc3)nc(NCC(O)CO)c2c1C=O (stereo not drawn) [700,090] | > 64 |  |
| CCc1[nH]c2nc(Sc3cccnc3)nc(NCc3ccccc3OC)c2c1C=O [700,091] | > 64 |  |
| CCc1[nH]c2nc(Sc3cccnc3)nc(NCC3CCCO3)c2c1C=O (stereo not drawn) [700,092] | 64 (≈ 167 µM) |  |
| CCc1[nH]c2nc(Sc3cccnc3)nc(NC(C)C)c2c1C=O [700,093] | > 64 |  |
| CCc1[nH]c2nc(Sc3cccnc3)nc(NCCOC)c2c1C=O [700,094] | 64 (≈ 179 µM) |  |
| CCc1[nH]c2nc(Sc3cccnc3)nc(NCCO)c2c1C=O [700,096] | > 64 |  |
| CCc1[nH]c2nc(Sc3cccnc3)nc(NCc3cccc(S(C)(=O)=O)c3)c2c1C=O.Cl [700,098] | > 64 |  |
| CCc1[nH]c2nc(Sc3nc4ccccc4s3)nc(Cl)c2c1C=O [700,099] | > 64 |  |
| CCc1[nH]c2nc(Sc3nc4ccccc4s3)nc(NC[C@H](C)O)c2c1C=O [700,100] | > 64 |  |
| CCc1[nH]c2nc(Sc3nc4ccccc4s3)nc(NC(C)C)c2c1C=O [700,101] | > 64 |  |
| CCc1[nH]c2nc(Sc3nc4ccccc4s3)nc(NCCN3CCOCC3)c2c1C=O [700,102] | > 64 |  |

| SMILES | MIC, SA [1] [µg/mL] | MIC Spn52 [2] [µg/mL] |
| --- | --- | --- |
| CCc1[nH]c2nc(Sc3nc4ccccc4s3)nc(NCc3cccnc3)c2c1C=O [700,103] | > 64 |  |
| C#CCNc1nc(Sc2nc3ccccc3s2)nc2[nH]c(CC)c(C=O)c12 [700,104] | > 64 |  |
| CCNc1nc(Sc2nc3ccccc3s2)nc2[nH]c(CC)c(C=O)c12 [700,105] | > 64 |  |
| CCc1[nH]c2nc(Sc3nc4ccccc4s3)nc(NCCCN3CCOCC3)c2c1C=O [700,106] | > 64 |  |
| CCc1[nH]c2nc(Sc3nc4ccccc4s3)nc(NCCCn3ccnc3)c2c1C=O [700,107] | > 64 |  |
| CCc1[nH]c2nc(Sc3nc4ccccc4s3)nc(NN)c2c1C=O [700,108] | > 64 |  |
| CCc1[nH]c2nc(Sc3nc4ccccc4s3)nc(Cl)c2c1CO [700,109] | > 64 |  |
| CCc1[nH]c2nc(Sc3cccnc3)nc(Cl)c2c1C(C)=O [700,119] | 64 (≈ 192 µM) |  |
| CCc1[nH]c2nc(Sc3cccnc3)nc(NCCCn3ccnc3)c2c1C(C)=O [700,121] | 32 (≈ 75.9 µM) |  |
| CCc1[nH]c2nc(Sc3cccnc3)nc(NC(C)C)c2c1C(C)=O [700,122] | > 64 |  |
| CCc1[nH]c2nc(Sc3cccc(C(=O)O)c3)nc(NC[C@H](C)O)c2c1C=O [700,127] | > 64 |  |
| CCc1[nH]c2nc(Sc3cccnc3)nc(OC)c2c1C=O [700,129] | 16 (≈ 50.9 µM) |  |
| CCOc1nc(Sc2cccnc2)nc2[nH]c(CC)c(C=O)c12 [700,130] | 8 (≈ 24.4 µM) |  |
| CCc1[nH]c2nc(Sc3cccnc3)nc(N[C@H](C)CO)c2c1C=O [700,131] | 64 (≈ 179 µM) |  |
| CCc1[nH]c2nc(Sc3cccnc3)nc(NC3CCCC[C@H]3O)c2c1C=O (stereo partly drawn) [700,132] | 32 (≈ 80.5 µM) |  |
| CCc1[nH]c2nc(Sc3cccnc3)nc(N[C@H]3CCCC[C@@H]3N)c2c1C=O [700,133] | > 64 |  |
| CCOC(=O)c1ccc(CNc2nc(Sc3cccnc3)nc3[nH]c(CC)c(C=O)c23)o1 [700,135] | > 64 |  |
| CCc1[nH]c2nc(Sc3cccnc3)nc(N(C)C)c2c1C=O [700,136] | 16 (≈ 48.9 µM) |  |
| CCc1[nH]c2nc(Sc3cccnc3)nc(N(C)CCN(C)C)c2c1C=O [700,137] | 64 (≈ 166 µM) |  |
| CCc1[nH]c2nc(Sc3cccnc3)nc(NCCCCCC(=O)O)c2c1C=O [700,141] | 64 (≈ 155 µM) |  |
| CCc1[nH]c2nc(Sc3cccnc3)nc(NC34CC5CC(C3)C(=O)C(C5)C4)c2c1C=O [700,142] | 32 (≈ 71.5 µM) |  |

| SMILES | MIC, SA [1] [µg/mL] | MIC Spn52 [2] [µg/mL] |
| --- | --- | --- |
| CCc1[nH]c2nc(Sc3nc4ccccc4s3)nc(N)c2c1C [700,147] | > 64 |  |
| CCc1[nH]c2nc(SCc3cccnc3)nc(N)c2c1C [700,148] | > 64 |  |
| CCc1[nH]c2nc(Sc3cnc4ccccc4n3)nc(N)c2c1C [700,149] | > 64 |  |
| CCc1nc2c(N(C)C)nc(Sc3cccc(C(=O)O)c3)nc2[nH]1.O=C(O)C(F)(F)F [700,220] | > 64 | 64 |
| CCc1[nH]c2nc(Sc3cccnc3)nc(NCCCn3ccnc3)c2c1C=O.O=C(O)C(F)(F)F.O=C(O)C(F)(F)F [700,261] | 16 | 32 |
| CCc1[nH]c2nc(Sc3cccnc3)nc(Cl)c2c1Br.O=C(O)C(F)(F)F [700,267] | 2 | 16 |
| CCc1[nH]c2nc(Sc3cccnc3)nc(Cl)c2c1Cl.O=C(O)C(F)(F)F [700,268] | 4 | 16 |
| CCc1[nH]c2nc(Sc3cccnc3)nc(NCCCn3ccnc3)c2c1Br.O=C(O)C(F)(F)F.O=C(O)C(F)(F)F [700,269] | 4 | 16 |
| CCc1[nH]c2nc(Sc3cccnc3)nc(NC[C@H](C)O)c2c1Br.O=C(O)C(F)(F)F [700,270] | 2 | 8 |
| CCc1[nH]c2nc(Sc3cccnc3)nc(NCc3ccccc3OC)c2c1Br.O=C(O)C(F)(F)F [700,271] | > 64 | > 64 |
| CCc1[nH]c2nc(Sc3cccnc3)nc(NC[C@H](C)O)c2c1Cl.O=C(O)C(F)(F)F [700,273] | 4 | 16 |
| CCc1[nH]c2nc(Sc3cccnc3)nc(NCCCn3ccnc3)c2c1Cl.O=C(O)C(F)(F)F [700,274] | 4 | 16 |
| CCOc1nc(Sc2cccnc2)nc2[nH]c(CC)c(Br)c12.O=C(O)C(F)(F)F [700,275] | 1 | 8 |
| CCOc1nc(Sc2nc(C(=O)OC)cs2)nc2[nH]c(CC)c(Br)c12 [700,281] | 32 (≈ 72.2 µM) | 64 (≈ 144 µM) |
| CCc1[nH]c2nc(Sc3nc(C(=O)OC)cs3)nc(O)c2c1Br [700,282] | ≤ 0.5 | 4 (≈ 9.63 µM) |
| CCOc1nc(Sc2nc(C(=O)O)cs2)nc2[nH]c(CC)c(Br)c12 [700,286] | 4 (≈ 9.32 µM) | 32 (≈ 74.5 µM) |
| CCc1[nH]c2nc(Sc3cccnc3)nc(NCCNc3ccc(C(=O)O)cn3)c2c1C=O [700,287] | > 64 | > 64 |
| CCOc1nc(S(C)(=O)=O)nc2[nH]c(CC)c(Br)c12 [700,288] | > 64 | 64 (≈ 184 µM) |
| CCOC(=O)c1coc(Sc2nc(OCC)c3c(Br)c(CC)[nH]c3n2)n1 [700,290] | > 64 | > 64 |
| CCc1[nH]c2nc(Sc3cc(=O)n(CCc4ccccc4)c(=O)[nH]3)nc(N3CC(O)C3)c2c1Br [700,413] |  | 8 (≈ 14.7 µM) |
